The record followed here is patent US7947833B2, “Preparation of quinoxaline compounds” (Janssen Pharmaceutica NV, priority 2004, dated 2011).

The target of the test is CCK2 receptor (Cavia porcellus, UniProt H0VZC5). Description: Guinea-pig gastric corpeal muscle assay (pentagastrin-induced contraction). Conditions: isolated guinea-pig gastric corpeal muscle strips, pentagastrin concentration-response curves, CCK1 receptors blocked. How it is done: Guinea-Pig Gastric Corpeal Muscle Assay
CCK2 receptor-mediated muscle contraction was measured in an isolated muscle-strip assay of guinea-pig gastric corpeal muscle according to the methods described by Roberts et al. (S. P. Roberts, E. A. Harper, G. F. Watt, V. P. Gerskowitch, R. A. Hull, N. P. Shankley, and J. W. Black, Br. J. Pharmacol., 1996, 118(7):1779-1789). In brief, strips of muscle were dissected and suspended in isolated tissue organ baths for isotonic muscle contraction recording. The baths, containing Krebs-Henseleit solution, were maintained at […]. and gassed continuously with 95% O2 and 5% CO2. CCK1 receptors known to be present in this assay were blocked using a selective concentration of a suitable CCK1 receptor antagonist (e.g. 2-NAP). The effectiveness of the test compounds was assessed by measuring their effect on contractile concentration-response curves obtained using a well-characterized surrogate for the hormone gastrin (pentagastrin). […]

CCK2 receptor, sequence (H0VZC5 entry or part of it): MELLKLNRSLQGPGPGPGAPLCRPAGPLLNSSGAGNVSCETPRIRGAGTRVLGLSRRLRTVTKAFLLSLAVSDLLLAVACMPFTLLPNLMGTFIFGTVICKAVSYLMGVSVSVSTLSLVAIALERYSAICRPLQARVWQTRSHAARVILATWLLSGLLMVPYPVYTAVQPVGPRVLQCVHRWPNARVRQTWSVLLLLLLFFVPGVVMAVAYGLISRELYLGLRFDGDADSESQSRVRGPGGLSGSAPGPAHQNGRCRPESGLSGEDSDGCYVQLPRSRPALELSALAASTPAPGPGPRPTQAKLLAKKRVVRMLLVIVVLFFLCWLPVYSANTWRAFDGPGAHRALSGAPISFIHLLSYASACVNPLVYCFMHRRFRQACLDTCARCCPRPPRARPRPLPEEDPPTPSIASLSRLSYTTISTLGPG

As for `C[C@@H](NC(=O)c1ccc(Br)cc1NS(=O)(=O)c1cccc2nccnc12)c1ccc(F)cc1F` [Example 2, (R)-4-Bromo-N-[1-(2,4-difluoro-phenyl)-ethyl]-2-(quinoxaline-5-sulfonylamino)-benzamide], the “behaviour in the assay (mode of antagonism)” value was “competitive antagonist”.
